Experiment [1] relates to CD3 surface expression in CD40L+4-1BB+ CD4+ T cells. It counts as cell-based, human.
Experiment [2] has as its system CD40L+4-1BB+ CD4+ T cells. In words: Ex vivo T cell stimulation of PBMC, stimulation index of CD40L+4-1BB+ CD4+ T cells by flow cytometry. It counts as cell-based, human.
Experiment [3] has as its system serum IgG antibodies. To be noted: sera 1:100 from iCope T cell assay responders and non-responders.
Protocol: After blocking (1 h, 30° C.) serum samples were diluted 1:100 and incubated for 1 h at 30° C. HRP-coupled, anti-human-IgG secondary antibody (Jackson Immunoresearch) was diluted 1:5000 (Jackson Immunoresearch) and added to the serum samples for 1 h at 30° C., then HRP substrate was added (TMB, Kem-En-Tec). The reaction was stopped by adding sulfuric acid and absorption was measured at 450 nm using a FlexStation 3.
The subject of experiment [4] is expanded CD40L+4-1BB+ CD4+ short-term T cell lines. In words: Restimulation of expanded short-term T cell lines with autologous APC and peptides or peptide pools. It counts as cell-based, human. To be noted: T cell lines from 5 unexposed individuals.

Several values for one entry are separate records, joined by “and”; a condition that tells them apart may be missing. Identical values can stand only once.

For the substance SFIEDLLFNKVTLAD [iCope], the “donors in which reactive T cells increased in frequency and in functional avidity” value in experiment [1] was 10 of 17. Besides, the “donors responding with high functional avidity T cells” value in experiment [1] (day 7 and day 14 after BNT162b2 primary vaccination, 31 donors) turned out to be 94%. The “proportion of individuals with iCope-recognizing CD4+ T cells” value in experiment [2] (BNT162b2 vaccinated individuals) is given as 97%. The “proportion of individuals with iCope-reactive CD4+ T cells” value in experiment [2] (SARS-CoV-2 / COVID-19 convalescents) was 50% and 50-60%. Besides, the “contribution of peptide-specific T cells to the CD40L+4-1BB+ cells in S-II stimulations” value in experiment [2] (initially after BNT162b2 vaccination) was “up to 100%”. Further, the “proportion of individuals with iCope-reactive CD4+ T cells” value in experiment [2] (unexposed individuals) was found to be 20%. In addition, in experiment [2] (young, unexposed donors), the “strong responders (stim. index>3)” value is reported as 44% and the “weak responders (stim. index>1.5)” value is given as 39%.

On to “Biotin-Ttds-PSKPSKRSFIEDLLFNKV-OH [204_-1]”, for which the “peptide binding IgG antibodies detected in serum” value in experiment [3] is listed as “in all individuals”.

For the substance FIEDLLFNKVTLADA [compound 205], the “donors whose expanded SARS-CoV-2 S-II-cross-reactive T cells were stimulated by the peptide” value in experiment [4] is on record as “all 5 donors”.

As to SKRSFIEDLLFNKVT [compound 204], in experiment [4], the “donors whose expanded SARS-CoV-2 S-II-cross-reactive T cells were stimulated by the peptide” value is recorded as “all 5 donors”.

Values taken from patent publication US20240159740A1, “METHOD FOR DIRECT ANALYSIS OF FUNCTIONAL AVIDITY OF T CELLS” (priority 2021, published 2024).
